pIC50: −log10 of the molar value. Entries after “also recorded” stand apart in the source; their conditions may differ.
How the values were obtained:
[1] = Encapsulation of DXR in liposomes (Sephadex G-50M); assay type: physicochemical; settings: VET liposomes PL:PG:CHOL:DXR (50:50:50:15), anti-oxidant varied
Protocol: A chloroform solution was prepared containing the selected lipids (table II) and 7.5 mg. of the chroman 6 in a round-bottomed flask. Afterward proceeding to the elimination of the organic solvent by means of roto-evaporation, additionally the traces of solvent were eliminated by passage of N2 or by lyophilization. The lipidic film thus obtained was hydrated, with 3 ml of NaCl solution at 0.9% containing DXR, by agitation in a vibromixer at intervals of 30 sec., followed by resting in a bath maintained at 60° C. for the same amount of time and an effective agitation up to 10 min. Thus a liposomal dispersion was obtained containing preferably multilamelar vesicles (MLVs). The liposomal solution was sonicated by ultrasonic irradiation by means of a titanium probe until a change in the turbidity was observed. The protocol of sonication was carried out in relays of 2 min. of sonication and one minute resting under atmosphere of N2 in an ice water bath. In order to eliminate the particles of titanium produced during the sonication, it was centrifuged for 20 min. at 3000 rpm. The liposomal suspension thus obtained contained small unilamelar liposomes (SUVs).
Alternatively, the suspension of multilamelar liposomes obtained as described was submitted to extrusion through polycarbonate filters of 0.4 and 0.2 μm in diameter of pore subsequently, obtaining liposomes designated VET.
The determination of the percentage of encapsulation of DXR was done by chromatographic separation of a portion of the liposomal suspension, by means of Sephadex G-50M utilizing NaCl 0.9% as eluent.
Proceeding in a manner analogous to that described in EXAMPLE 2 to obtain VET liposomes utilizing a ratio by weight of PL:PG:CHOL:DXR of 50:50:50:15 and varying the anti-oxidant agent employed. The results obtained show (Table III) that no appreciable differences exist in the percentages of encapsulation when different inhibitors of the lipidic peroxidation were utilized.

[2] = system: lipid peroxidation in rat liver microsomes (Fe-ascorbate); experiment: Inhibition of Fe-ascorbate stimulated (chemical) lipid peroxidation in rat liver microsomes, TBARS test; assay type: biochemical, Sprague-Dawley male rat; settings: for percentage of inhibition of TBARS production, Fe-ascorbate: at a 0.5 mM concentration; for inhibition of lipid peroxidation, Fe-ascorbate (in words) / pIC50: rat liver microsomes; for effect with Fe-ascorbate compared with the tests depending on NADPH: Fe-ascorbate vs. NADPH; for pIC50: FeSO4, ascorbic acid 0.5 mM, 30 min. at 37° C., read-out: IC50 TBARS production, Fe-ascorbate
Protocol: (§1) Incubations. Suspension of Sprague-Dawley male rat liver microsomes in Krebs-Ringer (KRP) phosphates buffer, were prepared in accordance with the method of Fraga et al.: Free Radical Biol. Med. (1988) 4, 155-161. For the experiences of lipidic peroxidation induced enzymatically, microsomal protein (2 mg) in 1 ml of KRP buffer was incubated for one hour at 37° C. in the presence of 0.1 mM NADPH and 2 μl of DMSO containing the compound to be evaluated at the appropriate concentration. In the experiments where the incubations were prolonged up to three hours, every hour 0.1 ml of NADPH 2 mM was added to the incubation medium. For the experiments of lipid peroxidation induced chemically, 2 mg. of microsomal protein in 1 ml of KRP buffer were incubated for 30 min. at 37° C. in the presence of FeSO4 50/μM, ascorbic acid 0.5 mM and 2 μl of DMSO containing the compound to be evaluated at the appropriate concentration. In all cases, the incubations were arrested by addition of 0.2 ml of BHT at 4%.
(§2) TBARS test. […]. (1988) 4, 155-161 (herein incorporated by reference). Briefly, 0.5 ml of dodecyl sodium sulphate at 3% was added to proportions of 0.5 ml of the microsomal incubations. After mixing them, 2 ml of HC1 0.1 N, 0.3 ml of phosphotungstic acid and 1 ml of 2-thiobarbituric acid were added. The mixture was kept 30 min. at 100° C., and the TBARS were extracted with 3 ml of 1-butanol. After centrifugation, the fluorescence of the butanol phase was determined exciting at 515 nm and reading at 555 nm. The values obtained were expressed as nanomoles of TBARS (malondialdehyde equivalents). The standards of malondialdehyde were prepared from 1,1,3,3-tetramethoxypropane. The experiments were performed in triplicate. The values of […] were determined by representation of the percentage of inhibition vs. log [I], using at least five different concentrations. The values of the percentages of inhibition were referred to the determination carried out in presence of DMSO (2 μl).
(§3) In Table I the results of the inhibition of the lipidic peroxidation shown by several 2.2-dimethylchromans and chromans, fluorated or not, in incubations of rat liver microsomes induced by NADPH or stimulated by Fe-ascorbate, are shown, expressed as values of […] for the inhibition of the production of TBARS.

[3] = system: lipid peroxidation in rat liver microsomes (NADPH); experiment: Inhibition of NADPH-induced (enzymatic) lipid peroxidation in rat liver microsomes, TBARS test; assay type: biochemical, Sprague-Dawley male rat; settings: for pIC50 / inhibition of lipid peroxidation, NADPH (in words): rat liver microsomes; for pIC50: 0.1 mM NADPH, one hour at 37° C., read-out: IC50 TBARS production, NADPH
Protocol: as §1, §2, §3

[4] = system: lipid peroxidation in rat liver microsomes (NADPH); experiment: Persistence of the inhibition of lipid peroxidation over three hours in rat liver microsomes with NADPH; assay type: biochemical, Sprague-Dawley male rat; settings: compounds 5, 6, 8, 9 at 15, 1, 6, 5 μM
Protocol: FIG. 1 illustrates the formulas of the chromenes (1-4), chromans (5-9) and compound of reference, BHT, (10) studied as inhibitors of the lipidic peroxidation. […] The values shown are the average +/-SD of sextuplicate tieterminations that were performed. The difference between consecutive hours are marked by asterisks: * P<0.001, ** P<0.005.
as §1
TBARS test. When the incubations were completed, the lipid peroxidation was evaluated by means of the production of substances which react with thiobarbituric acid (TBARS) as Fraga et al described.: Free Radical Biol. Meal. (1988) 4, 155-161 (herein incorporated by reference). Briefly, 0.5 ml of dodecyl sodium sulphate at 3% was added to proportions of 0.5 ml of the microsomal incubations. […] After centrifugation, the fluorescence of the butanol phase was determined exciting at 515 nm and reading at 555 nm. The values obtained were expressed as nanomoles of TBARS (malondialdehyde equivalents). […] The values of […] were determined by representation of the percentage of inhibition vs. log [I], using at least five different concentrations. […]

[5] = Survival of healthy BALB/C rats after i.p. administration; settings: rat, in vivo, ip, 18 mg/kg, during the second week
Protocol: (§4) As in Example 1, VET liposomes of composition PL:PG:CHOL:DXR (50:50:50:15) and chroman 6 (7.5 mg) were prepared.
Inoculation by intraperitoneal route. Healthy BALB/C rats were treated intraperitoneally with said preparation, and the survival curves compared (FIG. 4) with the administration of free drug at the same dose, 18 mg/kg. In the experiment there was incorporated as a control a preparation of liposomes without drug, of identical characteristics and at the same lipidic concentration which would correspond to the liposomes with DXR.

[6] = Survival of healthy BALB/C rats after i.v. administration; settings: rat, in vivo, iv, 16 mg/kg, during the second week
Protocol: as §4
Inoculation intravenously. Healthy BALB/C rats were treated intravenously with the preparation of L-DXR described and the survival curves compared (FIG. 5) with the administration of free drug of the same dose, 16 mg/kg. In the experiment there was incorporated as a control a preparation of liposomes without drug, of identical characteristics and at the same lipidic concentration which would correspond to the liposomes with DXR.

animals = settings: literature; cited from earlier work
rat liver microsomes = assay type: in vitro ADME, Sprague-Dawley male rat

| SMILES | % encapsulation (Table III) [1] | pIC50 [3] | pIC50 [2] | percentage of inhibition of TBARS production, Fe-ascorbate [2] | inhibition of lipid peroxidation, Fe-ascorbate (in words) [2] | effect with Fe-ascorbate compared with the tests depending on NADPH [2] | inhibiting activity compared with another compound, Fe-ascorbate [2] | inhibiting activity compared with another compound, NADPH [3] | persistence of the inhibiting activity [4] | inhibition of lipid peroxidation, NADPH (in words) [3] | mortality [5] | mortality [6] | toxicity in animals (in words) (animals) | metabolite detected (rat liver microsomes) |
| --- | --- | --- | --- | --- | --- | --- | --- | --- | --- | --- | --- | --- | --- | --- |
| COc1cc2c(cc1OC)OC(C)(C)C=C2 [compound 1] | 89% | 4.94 | – | 35% | inactive | – | – | – | – | – | – | – | – | – |
| CC1(C)CCc2cc(O)c(OCC(F)(F)F)cc2O1 [compound 9] | 83% | 5.41 | 5.28 | – | – | – | slightly inferior to that shown by hydroxychroman 6 | – | decreases during the second and the third hour of incubation; also recorded: less pronounced than that obtained for the compound 6; also recorded: more persistent intrinsic activity | the highest inhibiting activity of the chroman fluorates tested | – | – | – | – |
| COc1cc2c(cc1OC)OC(C)(C)CC2 [compound 5] | 86% | 4.82 | – | 17% | inactive | – | – | – | remains constant; also recorded: anti-oxidant efficiency more metabolic-dependent | – | – | – | – | – |
| COc1cc2c(cc1OCC(F)(F)F)OC(C)(C)CC2 [compound 8] | 90% | 5.22 | – | 5% | does not present inhibiting activity per se | – | – | nine times greater than that corresponding to chromene 3 | slightly higher during the second hour of incubation; also recorded: significant drop in the inhibiting activity during the third hour; also recorded: not significant when it is compared with the percentage of inhibition determined for the first hour of incubation (P>0.005); also recorded: anti-oxidant efficiency more metabolic-dependent | – | – | – | – | – |
| COc1cccc2c1C(=O)c1c(O)c3c(c(O)c1C2=O)C[C@@](O)(C(=O)CO)C[C@@H]3O[C@H]1C[C@H](N)[C@H](O)[C@H](C)O1 [F-DXR] | – | – | – | – | – | – | – | – | – | – | 100% | 100% | cardiomyopathy | – |
| CC1(C)C=Cc2cc(O)c(OCC(F)(F)F)cc2O1 [compound 4] | 84% | 5.43 | 5.22 | – | – | – | – | – | – | the greatest inhibiting activity | – | – | – | detection as a metabolite in the incubations with NADPH |

The remaining molecules from weak to strong by pIC50 [3], led by results:

| % encapsulation (Table III) [1] | pIC50 [3] | pIC50 [2] | SMILES | percentage of inhibition of TBARS production, Fe-ascorbate [2] | inhibition of lipid peroxidation, Fe-ascorbate (in words) [2] | effect with Fe-ascorbate compared with the tests depending on NADPH [2] | inhibiting activity compared with another compound, Fe-ascorbate [2] | inhibiting activity compared with another compound, NADPH [3] | persistence of the inhibiting activity [4] | inhibition of lipid peroxidation, NADPH (in words) [3] | mortality [5] | mortality [6] | toxicity in animals (in words) (animals) | metabolite detected (rat liver microsomes) |
| --- | --- | --- | --- | --- | --- | --- | --- | --- | --- | --- | --- | --- | --- | --- |
| 88% | 5.47 | 4.72 | COc1cc2c(cc1O)OC(C)(C)CC2 [compound 7] | – | potent inhibiting effect | six times smaller | – | – | – | – | – | – | – | – |
| 85% | 5.85 | 5.42 | COc1cc2c(cc1O)C=CC(C)(C)O2 [compound 2] | – | potent inhibiting effect | six times smaller | – | – | – | – | – | – | – | – |
| – | 6.10 | 5.57 | Cc1cc(C(C)(C)C)c(O)c(C(C)(C)C)c1 [compound 10, reference compound] | – | – | A similar relation | – | – | – | – | – | – | – | – |
| 87% | 6.52 | 5.72 | COc1cc2c(cc1O)CCC(C)(C)O2 [compound 6] | – | potent inhibiting effect; also recorded: the greatest inhibiting power | six times smaller | superior to that of the BHT; also recorded: an order of magnitude greater than that of the compound 7 | an order of magnitude greater than that of the compound 7 | – | – | – | – | – | – |

From US5605703A, “Liposomes encapsulating doxorubicin” (priority 1993, dated 1997)
